From PubChem BioAssay (NCI)
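Cells were grown in 96-well plates and exposed to each compound for 48 hours at five concentrations; endpoints were interpolated linearly between bracketing concentrations, or set to the highest concentration if not reached. TGI: total growth inhibition.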

What was measured:
Assay in all cases: DTP human tumour cell line panel, 48 h
[1] = tested on: COLO 205 colon
[2] = tested on: SR leukemia
[3] = tested on: SK-MEL-28 melanoma
[4] = tested on: HCT-116 colon
[5] = tested on: UACC-62 melanoma
[6] = tested on: BT-549 breast
[7] = tested on: NCI-H460 lung
[8] = tested on: U251 CNS
[9] = tested on: NCI/ADR-RES ovarian
[10] = tested on: EKVX NSCLC
[11] = tested on: MALME-3M melanoma
[12] = tested on: SK-MEL-2 melanoma
[13] = tested on: RPMI-8226 leukemia
[14] = tested on: OVCAR-3 ovarian
[15] = tested on: NCI-H23 lung
[16] = tested on: SNB-75 CNS
[17] = tested on: SN12C renal
[18] = tested on: A549 NSCLC
[19] = tested on: MDA-MB-231 breast
[20] = tested on: NCI-H226 lung

Structure (SMILES) | TGI [1] [µM] | TGI [2] [µM] | TGI [3] [µM] | TGI [4] [µM] | TGI [5] [µM] | TGI [6] [µM] | TGI [7] [µM] | TGI [8] [µM] | TGI [9] [µM] | TGI [10] [µM] | TGI [11] [µM] | TGI [12] [µM] | TGI [13] [µM] | TGI [14] [µM] | TGI [15] [µM] | TGI [16] [µM] | TGI [17] [µM] | TGI [18] [µM] | TGI [19] [µM] | TGI [20] [µM]
O=c1oc2c/c(=C\c3ccc([N+](=O)[O-])cc3)c(=O)c3cccc1c3-2 | > 100 | > 100 | > 100 | > 100 | > 100 | > 100 | > 100 | > 100 | > 100 | > 100 | > 100 | > 100 | > 100 | > 100 | > 100 | 88.6 | > 100 | > 100 | > 100 | –
Nc1ccccc1N=Cc1cc2cc([N+](=O)[O-])ccc2s1 | 45.5 | > 100 | 57.8 | > 100 | 38.1 | 52.9 | 47.5 | 28.2 | > 100 | 45.1 | 81.7 | 37.3 | 46.8 | 30.1 | > 100 | 28.8 | > 100 | 30.9 | 39.2 | –
CCOC(=O)/C=C(\C(=O)OCC)n1ccc(=O)n(Cc2cn(CCCCOC(C)=O)nn2)c1=O | > 36.2 | > 36 | 21.2 | > 47.4 | 33.2 | 24.7 | 57.7 | 30.9 | 53.3 | 31.4 | 4.83 | 37 | > 36 | 29.2 | 32.3 | 41.8 | 43 | 45.9 | 39.1 | 32.7
O=C1NC(N/N=C\C(O)C(O)C(O)C(O)CO)=N/C1=C/c1ccc(Cl)cc1 (stereo not given) | > 100 | > 100 | > 100 | > 100 | – | > 100 | > 100 | > 100 | > 100 | > 100 | > 100 | > 100 | > 100 | > 100 | > 100 | > 100 | > 100 | > 100 | > 100 | > 100
COc1ccc2c(C(=O)c3cn(CCN4CCOCC4)c4ccccc34)cccc2c1 | > 92 | > 100 | > 100 | > 100 | > 100 | > 100 | > 100 | > 100 | > 100 | > 100 | > 75.7 | > 100 | > 100 | > 25.5 | > 100 | > 100 | > 100 | > 100 | > 100 | > 100
CC(Oc1ccc(Cl)cc1Cl)C(=O)NN1C(=O)CSC1c1ccccc1 (stereo not given) | > 100 | 19.2 | > 100 | > 100 | > 100 | 46.5 | > 100 | > 100 | > 100 | > 100 | > 100 | > 100 | > 100 | > 100 | > 100 | > 100 | > 100 | > 100 | > 100 | 64.1
COc1ccc(-c2cc3ccccc3oc2=O)cc1OC | > 100 | > 100 | – | > 100 | > 100 | > 100 | – | > 100 | > 100 | > 100 | > 100 | > 100 | > 100 | > 100 | > 100 | > 100 | > 100 | > 100 | > 100 | > 100
COc1ccc(N=NC(=O)NC(CC(C)C)C(=O)NC(C)C(=O)O)cc1 (stereo not given) | 16.3 | > 100 | > 100 | > 100 | > 100 | > 100 | > 89 | > 100 | > 100 | > 100 | > 100 | > 100 | > 100 | > 100 | > 100 | > 100 | > 100 | > 51.2 | > 100 | > 100
O=C1c2ccccc2C(=O)c2c1nc1ccccc1c2-c1cncc(-c2c3c(nc4ccccc24)C(=O)c2ccccc2C3=O)c1 | 19.8 | 7.9 | 28.7 | 24.7 | 19.9 | 40 | 10 | > 45.8 | 51 | > 100 | 24.1 | 44.6 | 3.51 | > 75.6 | 2.62 | 21.1 | 27.9 | 22.3 | 98.2 | 43.6
